# Target: TBK1 (Homo sapiens (Human), UniProt Q9UHD2)
# Test: TBK1 low ATP kinase assay (in vitro assay 1)
# Type: biochemical
# Details: TBK1 low ATP kinase assay IC50, in vitro assay 1
# Sequence of TBK1 (Q9UHD2 whole entry): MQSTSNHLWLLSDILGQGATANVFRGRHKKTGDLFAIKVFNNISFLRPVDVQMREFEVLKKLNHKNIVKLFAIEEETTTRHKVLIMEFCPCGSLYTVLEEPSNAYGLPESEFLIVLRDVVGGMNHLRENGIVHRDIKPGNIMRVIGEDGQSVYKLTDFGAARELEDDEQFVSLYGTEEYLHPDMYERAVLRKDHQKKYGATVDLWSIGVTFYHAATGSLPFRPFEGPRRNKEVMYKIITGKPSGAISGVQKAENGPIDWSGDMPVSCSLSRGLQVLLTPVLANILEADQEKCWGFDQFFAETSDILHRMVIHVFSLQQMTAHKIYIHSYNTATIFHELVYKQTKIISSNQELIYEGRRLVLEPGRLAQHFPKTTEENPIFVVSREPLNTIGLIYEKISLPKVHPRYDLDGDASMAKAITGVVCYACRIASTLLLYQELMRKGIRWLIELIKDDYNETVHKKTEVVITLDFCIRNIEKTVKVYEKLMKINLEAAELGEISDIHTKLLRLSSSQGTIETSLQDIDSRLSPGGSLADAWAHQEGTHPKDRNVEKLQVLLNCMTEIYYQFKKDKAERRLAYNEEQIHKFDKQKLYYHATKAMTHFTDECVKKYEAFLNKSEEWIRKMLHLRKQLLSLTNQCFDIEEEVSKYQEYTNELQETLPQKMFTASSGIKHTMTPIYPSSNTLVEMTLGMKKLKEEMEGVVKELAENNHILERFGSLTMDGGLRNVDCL
row,IC50 [nM],Structure (SMILES)
1,7.56,"O=C(CC(F)(F)F)N1CCN(Cc2ccnc(Nc3nc4ccc(-c5cnn(CC6CCC6)c5)cc4[nH]3)c2)CC1 [Example 59.02.01, 1-(4-{[2-({6-[1-(cyclobutylmethyl)-1H-pyrazol-4-yl]-1H-benzimidazol-2-yl}amino)pyridin-4-yl]methyl}piperazin-1-yl)-3,3,3-trifluoropropan-1-one]"

# Same assay, conditions: in vitro assay 1, read-out: TBK1 low ATP kinase assay IC50
row,Structure (SMILES),IC50 [nM]
1,"O=C(C1CC1)N1CCN(Cc2ccnc(Nc3nc4ccc(-c5cnn(CC(F)(F)F)c5)cc4[nH]3)c2)CC1 [Example 58.01.03, cyclopropyl(4-{[2-({6-[1-(2,2,2-trifluoroethyl)-1H-pyrazol-4-yl]-1H-benzimidazol-2-yl}amino)pyridin-4-yl]methyl}piperazin-1-yl)methanone]",6.44
2,"O=C(C1CC1)N1CCN(Cc2ccnc(Nc3nc4ccc(-c5cnn(CC6CCC6)c5)cc4[nH]3)c2)CC1 [Example 59.02.02, (4-{[2-({6-[1-(cyclobutylmethyl)-1H-pyrazol-4-yl]-1H-benzimidazol-2-yl}amino)pyridin-4-yl]methyl}piperazin-1-yl)(cyclopropyl)methanone]",6.71
3,"COc1c(Cl)ncnc1-c1ccc2nc(Nc3cc(CN4CCN(C(=O)CC(F)(F)F)CC4)ccn3)[nH]c2c1 [Example 60.01, 1-{4-[(2-{[6-(6-chloro-5-methoxypyrimidin-4-yl)-1H-benzimidazol-2-yl]amino}pyridin-4-yl)methyl]piperazin-1-yl}-3,3,3-trifluoropropan-1-one]",43
4,"COc1c(C)ncnc1-c1ccc2nc(Nc3cc(CN4CCN(C(=O)CC(F)(F)F)CC4)ccn3)[nH]c2c1 [Example 61.01.01, 3,3,3-trifluoro-1-{4-[(2-{[6-(5-methoxy-6-methylpyrimidin-4-yl)-1H-benzimidazol-2-yl]amino}pyridin-4-yl)methyl]piperazin-1-yl}propan-1-one]",19.7
5,"COc1c(C)ncnc1-c1ccc2nc(Nc3cc(CN4CCN(C(=O)C5CC5)CC4)ccn3)[nH]c2c1 [Example 61.01.02, cyclopropyl{4-[(2-{[6-(5-methoxy-6-methylpyrimidin-4-yl)-1H-benzimidazol-2-yl]amino}pyridin-4-yl)methyl]piperazin-1-yl}methanone]",23
6,"CC(C)(C)OC(=O)N1CCN(Cc2ccnc(Nc3nc4ccc(-c5ccnc(OCC6CC6)n5)cc4[nH]3)c2)CC1 [Example 62.01.01, tert-butyl 4-{[2-({6-[2-(cyclopropylmethoxy)pyrimidin-4-yl]-1H-benzimidazol-2-yl}amino)pyridin-4-yl]methyl}piperazine-1-carboxylate]",57.3
7,"O=C(C1CCC1)N1CCN(Cc2ccnc(Nc3nc4ccc(-c5ccnc(OCC6CC6)n5)cc4[nH]3)c2)CC1 [Example 62.01.02, cyclobutyl(4-{[2-({6-[2-(cyclopropylmethoxy)pyrimidin-4-yl]-1H-benzimidazol-2-yl}amino)pyridin-4-yl]methyl}piperazin-1-yl)methanone]",9.54
8,"O=C(CC(F)(F)F)N1CCN(Cc2ccnc(Nc3nc4ccc(-c5ccnc(OCC6CC6)n5)cc4[nH]3)c2)CC1 [Example 62.01.03, 1-(4-{[2-({6-[2-(cyclopropylmethoxy)pyrimidin-4-yl]-1H-benzimidazol-2-yl}amino)pyridin-4-yl]methyl}piperazin-1-yl)-3,3,3-trifluoropropan-1-one]",3.38
9,"O=C(C1CC1)N1CCN(Cc2ccnc(Nc3nc4ccc(-c5ccnc(OCC6CC6)n5)cc4[nH]3)c2)CC1 [Example 62.01.04, cyclopropyl(4-{[2-({6-[2-(cyclopropylmethoxy)pyrimidin-4-yl]-1H-benzimidazol-2-yl}amino)pyridin-4-yl]methyl}piperazin-1-yl)methanone]",5.19
10,"COc1cnc(Cl)nc1-c1ccc2nc(Nc3cc(CN4CCN(C(=O)OC(C)(C)C)CC4)ccn3)[nH]c2c1 [Example 63.01.01, tert-butyl 4-[(2-{[6-(2-chloro-5-methoxypyrimidin-4-yl)-1H-benzimidazol-2-yl]amino}pyridin-4-yl)methyl]piperazine-1-carboxylate]",36.4
11,"COc1cnc(OCC2CC2)nc1-c1ccc2nc(Nc3cc(CN4CCN(C(=O)OC(C)(C)C)CC4)ccn3)[nH]c2c1 [Example 64.01.01, tert-butyl 4-{[2-({6-[2-(cyclopropylmethoxy)-5-methoxypyrimidin-4-yl]-1H-benzimidazol-2-yl}amino)pyridin-4-yl]methyl}piperazine-1-carboxylate]",217
12,"COc1cnc(OCC2CC2)nc1-c1ccc2nc(Nc3cc(CN4CCN(C(=O)C5CC5)CC4)ccn3)[nH]c2c1 [Example 64.01.02, cyclopropyl(4-{[2-({6-[2-(cyclopropylmethoxy)-5-methoxypyrimidin-4-yl]-1H-benzimidazol-2-yl}amino)pyridin-4-yl]methyl}piperazin-1-yl)methanone]",33.7
13,"COc1cnc(OCC2CC2)nc1-c1ccc2nc(Nc3cc(CN4CCN(C(=O)CC(F)(F)F)CC4)ccn3)[nH]c2c1 [Example 64.01.03, 1-(4-{[2-({6-[2-(cyclopropylmethoxy)-5-methoxypyrimidin-4-yl]-1H-benzimidazol-2-yl}amino)pyridin-4-yl]methyl}piperazin-1-yl)-3,3,3-trifluoropropan-1-one]",47
14,"COc1c(OCC2CC2)ncnc1-c1ccc2nc(Nc3cc(CN4CCN(C(=O)OC(C)(C)C)CC4)ccn3)[nH]c2c1 [Example 65.01.01, tert-butyl 4-{[2-({6-[6-(cyclopropylmethoxy)-5-methoxypyrimidin-4-yl]-1H-benzimidazol-2-yl}amino)pyridin-4-yl]methyl}piperazine-1-carboxylate]",255
15,"COc1c(OCC2CC2)ncnc1-c1ccc2nc(Nc3cc(CN4CCN(C(=O)CC(F)(F)F)CC4)ccn3)[nH]c2c1 [Example 65.01.02, 1-(4-{[2-({6-[6-(cyclopropylmethoxy)-5-methoxypyrimidin-4-yl]-1H-benzimidazol-2-yl}amino)pyridin-4-yl]methyl}piperazin-1-yl)-3,3,3-trifluoropropan-1-one]",58.4
16,"Cc1nnc(-c2ccc3nc(Nc4cc(CN5CCN(C(=O)OC(C)(C)C)CC5)ccn4)[nH]c3c2)o1 [Example 66.01.01, tert-butyl 4-[(2-{[6-(5-methyl-1,3,4-oxadiazol-2-yl)-1H-benzimidazol-2-yl]amino}pyridin-4-yl)methyl]piperazine-1-carboxylate]",33.3
17,"Cc1nnc(-c2ccc3nc(Nc4cc(CN5CCN(C(=O)C6CC6)CC5)ccn4)[nH]c3c2)o1 [Example 66.01.02, cyclopropyl{4-[(2-{[6-(5-methyl-1,3,4-oxadiazol-2-yl)-1H-benzimidazol-2-yl]amino}pyridin-4-yl)methyl]piperazin-1-yl}methanone]",33
18,"O=C(CC(F)(F)F)N1CCN(Cc2ccnc(Nc3nc4ccc(-c5cc(C6CC6)ncn5)cc4[nH]3)c2)CC1 [Example 76.01, 1-{4-[(2-{[6-(6-cyclopropylpyrimidin-4-yl)-1H-benzimidazol-2-yl]amino}pyridin-4-yl)methyl]piperazin-1-yl}-3,3,3-trifluoropropan-1-one]",3.2
19,"O=C(C1CC1)N1CCN(Cc2ccnc(Nc3nc4ccc(-c5cc(C6CC6)ncn5)cc4[nH]3)c2)CC1 [Example 76.02, cyclopropyl{4-[(2-{[6-(6-cyclopropylpyrimidin-4-yl)-1H-benzimidazol-2-yl]amino}pyridin-4-yl)methyl]piperazin-1-yl}methanone]",9.4
20,"N#Cc1cc(-c2ccc3nc(Nc4cc(CN5CCN(C(=O)CC(F)(F)F)CC5)ccn4)[nH]c3c2)ncn1 [Example 77.01, 6-{2-[(4-{[4-(3,3,3-trifluoropropanoyl)piperazin-1-yl]methyl}pyridin-2-yl)amino]-1H-benzimidazol-6-yl}pyrimidine-4-carbonitrile]",9.2

# Second part, the compound after the results:
row,IC50 [nM],Structure (SMILES)
1,22,"CC(C)c1cc(-c2ccc3nc(Nc4cc(CN5CCN(C(=O)CC(F)(F)F)CC5)ccn4)[nH]c3c2)ncn1 [Example 78.01, 3,3,3-trifluoro-1-(4-{[2-({6-[6-(propan-2-yl)pyrimidin-4-yl]-1H-benzimidazol-2-yl}amino)pyridin-4-yl]methyl}piperazin-1-yl)propan-1-one]"
2,15,"CC(C)c1cc(-c2ccc3nc(Nc4cc(CN5CCN(C(=O)C6CC6)CC5)ccn4)[nH]c3c2)ncn1 [Example 78.02, cyclopropyl(4-{[2-({6-[6-(propan-2-yl)pyrimidin-4-yl]-1H-benzimidazol-2-yl}amino)pyridin-4-yl]methyl}piperazin-1-yl)methanone]"
3,8.3,"COCc1cc(-c2ccc3nc(Nc4cc(CN5CCN(C(=O)CC(F)(F)F)CC5)ccn4)[nH]c3c2)ncn1 [Example 79.01, 3,3,3-trifluoro-1-(4-{[2-({6-[6-(methoxymethyl)pyrimidin-4-yl]-1H-benzimidazol-2-yl}amino)pyridin-4-yl]methyl}piperazin-1-yl)propan-1-one]"
4,4.8,"COCc1cc(-c2ccc3nc(Nc4cc(CN5CCN(C(=O)C6CC6)CC5)ccn4)[nH]c3c2)ncn1 [Example 79.02, cyclopropyl(4-{[2-({6-[6-(methoxymethyl)pyrimidin-4-yl]-1H-benzimidazol-2-yl}amino)pyridin-4-yl]methyl}piperazin-1-yl)methanone]"
5,3.3,"COCc1cc(-c2ccc3nc(Nc4cc(CN5CCN(C(=O)C6(C(F)(F)F)CC6)CC5)ccn4)[nH]c3c2)ncn1 [Example 79.03, (4-{[2-({6-[6-(methoxymethyl)pyrimidin-4-yl]-1H-benzimidazol-2-yl}amino)pyridin-4-yl]methyl}piperazin-1-yl)[1-(trifluoromethyl)cyclopropyl]methanone]"
6,4.5,"O=C(CC(F)(F)F)N1CCN(Cc2ccnc(Nc3nc4ccc(-c5cc(OCC6CC6)ncn5)cc4[nH]3)c2)CC1 [Example 80.02, 1-(4-{[2-({6-[6-(cyclopropylmethoxy)pyrimidin-4-yl]-1H-benzimidazol-2-yl}amino)pyridin-4-yl]methyl}piperazin-1-yl)-3,3,3-trifluoropropan-1-one]"
7,2.9,"O=C(C1CC1)N1CCN(Cc2ccnc(Nc3nc4ccc(-c5cc(OCC6CC6)ncn5)cc4[nH]3)c2)CC1 [Example 80.03, cyclopropyl(4-{[2-({6-[6-(cyclopropylmethoxy)pyrimidin-4-yl]-1H-benzimidazol-2-yl}amino)pyridin-4-yl]methyl}piperazin-1-yl)methanone]"
